Reference: patent US9416139B2, “Spiro ring compound as hepatitis C virus (HCV) inhibitor and uses thereof” (SUNSHINE LAKE PHARMA CO., LTD., priority 2012, dated 2016)
Read-outs that look alike come from different tables or passages of the source.

What was measured:
HCV 1a replicon = experiment: HCV GT1a replicon assay in Huh-7 cells; format: cell-based, Hepatitis C virus; conditions: Huh-7 cells transfected with HCV replicon, 72 hours incubation, read-out: EC50 against HCV 1a genotype
Description: (§1) HCV Replicon System was utilized as an evaluation model in the present disclosure for verifying the effects of the compounds disclosed herein on HCV. An HCV Replicon assay was first described in Science, 1999, 285 (5424), 110-3. […] To determine the potential anti-HCV effects of the test compounds, luciferase assay and antibiotic Neomycin resistance gene were tested according to the method described in Science. 1999 Jul. 2; 285 (5424), 110-3 and J. Virol. 2003 March; 77 (5), 3007-19.
(§2) In a word, the compounds disclosed herein were tested by using human hepatic carcinoma cell line which is transfected stably HCV GT1a, GT1b or GT2a replicon respectively, and resistant cells Y93H, L31F, P32L or I302V and wild-type cells HCV 1b. HCV Replicon System disclosed herein containing Neomycin resistance gene and Luciferase Reporter Gene, the level of HCV replication in host cells is characterized by the expression level of the NEO gene expression level or Luciferase Reporter Gene, and the effects of the compounds herein inhibit HCV replication can be evaluated. In this article, a real-time quantitative polymerase chain reaction (qPCR) method was used to detect NEO gene expression level, and chemiluminescence method was used to test Luciferase Reporter Gene expression level.
(§3) 1. Test Method for Measuring EC50 of the Compounds Base on Luciferase Assay.
(§4) The Huh-7 cells transfected with HCV replicons system were seeded into 96-well plates (8,000 cells in 125 μL/well) respectively; each test compound was diluted to desired concentration using 5-fold serial dilutions protocol, 10 doses in duplicate, and added to wells with POD™ 810 Plate Assembler. […] In this paper, experiments were repeated twice and set the holes without compounds as negative control.
(§5) 2. Test Method for Measuring EC50 of the Compounds by Detecting Antibiotic G418 Resistance Gene NEO Gene.
(§6) In this paper, experiments were repeated twice and set the holes without compounds as negative control.

HCV 1b replicon = experiment: HCV GT1b replicon assay in Huh-7 cells; format: cell-based, Hepatitis C virus; conditions: Huh-7 cells transfected with HCV replicon, 72 hours incubation, read-out: EC50 against HCV 1b genotype
Description: as §1, §2, §3, §4, §5, §6

Structure (SMILES)	EC50 (HCV 1a replicon; Hepatitis C virus)	EC50 (HCV 1b replicon; Hepatitis C virus)	EC50 (HCV 1a replicon)	EC50 (HCV 1b replicon)
COC(=O)N[C@H](C(=O)N1CCC[C@H]1c1ncc(-c2ccc(-c3ccc(-c4ccc5nc([C@@H]6CCCN6C(=O)[C@@H](NC(=O)OC)C(C)C)[nH]c(=O)c5c4)c4c3CC3(CCCC3)C4)cc2)[nH]1)C(C)C [Example 1]	0.76 nM	0.042 nM	–	–
COC(=O)N[C@H](C(=O)N1CCC[C@H]1c1cc(=O)c2cc(-c3ccc(-c4ccc(-c5cnc([C@@H]6CCCN6C(=O)[C@@H](NC(=O)OC)C(C)C)[nH]5)cc4)c4c3CC3(CCCC3)C4)ccc2[nH]1)C(C)C [Example 2]	1.28 nM	0.087 nM	–	–
COC(=O)N[C@H](C(=O)N1CCC[C@H]1C1=Nc2cc(-c3ccc(-c4ccc(-c5cnc([C@@H]6CCCN6C(=O)[C@@H](NC(=O)OC)C(C)C)[nH]5)cc4)c4c3CC3(CCCC3)C4)ccc2C(C)(C)N1)C(C)C [Example 3]	0.537 nM	0.04 nM	–	–
COC(=O)N[C@H](C(=O)N1CCC[C@H]1C1=Nc2cc(-c3ccc(-c4ccc(-c5cnc([C@@H]6CCCN6C(=O)[C@@H](NC(=O)OC)C(C)C)[nH]5)cc4)c4c3CC3(CCCC3)C4)ccc2C2(COC2)N1)C(C)C [Example 4]	0.089 nM	0.016 nM	–	–
COC(=O)N[C@H](C(=O)N1CCC[C@H]1C1=Nc2cc(-c3ccc(-c4ccc(-c5cnc([C@@H]6CCCN6C(=O)[C@@H](NC(=O)OC)C(C)C)[nH]5)cc4)c4c3CC3(CCCC3)C4)ccc2S(=O)(=O)N1)C(C)C [Example 5]	0.078 nM	0.023 nM	–	–
COC(=O)N[C@H](C(=O)N1CCC[C@H]1c1nc2ccc(-c3ccc(-c4ccc5nc([C@@H]6CCCN6C(=O)[C@@H](NC(=O)OC)C(C)C)[nH]c(=O)c5c4)c4c3CC3(CCCC3)C4)cc2c(=O)[nH]1)C(C)C [Example 6]	0.109 nM	0.077 nM	–	–
COC(=O)N[C@H](C(=O)N1CCC[C@H]1c1ncc(C#Cc2ccc(-c3ccc4nc([C@@H]5CCCN5C(=O)[C@@H](NC(=O)OC)C(C)C)[nH]c(=O)c4c3)c3c2CC2(CCCC2)C3)[nH]1)C(C)C [Example 7]	0.21 nM	0.103 nM	–	–
CCC(C)[C@H](NC(=O)OC)C(=O)N1CCC[C@H]1c1nc(=O)c2cc(-c3ccc(-c4ccc(-c5cnc([C@@H]6CCCN6C(=O)[C@@H](NC(=O)OC)C(C)C)[nH]5)cc4)c4c3CC3(CCCCC3)C4)ccc2[nH]1 (stereo partly shown) [Example 8]	0.982 nM	0.065 nM	–	–
COC(=O)N[C@H](C(=O)N1C[C@@H](F)C[C@H]1c1nc(-c2ccc(-c3ccc(-c4ccc5nc([C@@H]6C[C@H](F)CN6C(=O)[C@@H](NC(=O)OC)C(C)C)[nH]c(=O)c5c4)c4c3CC3(CCCCC3)C4)cc2)c[nH]1)C(C)C [Example 9]	0.439 nM	0.072 nM	–	–
COC(=O)N[C@H](C(=O)N1CCC[C@H]1c1ncc(-c2ccc(-c3ccc(-c4ccc5nc([C@@H]6CC7CC7N6C(=O)[C@@H](NC(=O)OC)C(C)C)[nH]c(=O)c5c4)c4c3CC3(CCN(C)CC3)C4)cc2)[nH]1)C(C)C (stereo partly shown) [Example 10]	1.27 nM	0.438 nM	–	–
COC(=O)N[C@H](C(=O)N1CCC[C@H]1c1ncc(-c2ccc(-c3ccc(-c4ccc5nc([C@@H]6CC7CC7N6C(=O)[C@@H](NC(=O)OC)C(C)C)[nH]c(=O)c5c4)c4c3OC3(CCCC3)O4)cc2)[nH]1)C(C)C (stereo partly shown) [Example 11]	0.068 nM	0.032 nM	–	–
COC(=O)N[C@H](C(=O)N1CC(F)(F)CC1c1nc(-c2ccc(-c3ccc(-c4ccc5nc([C@@H]6CC(F)(F)CN6C(=O)[C@@H](NC(=O)OC)C(C)C)[nH]c(=O)c5c4)c4c3CC3(CCOCC3)C4)cc2)c[nH]1)C(C)C (stereo partly shown) [Example 12]	0.38 nM	0.049 nM	–	–
COC(=O)N[C@H](C(=O)N1CCC[C@H]1c1ncc(-c2ccc(-c3ccc(-c4ccc5nc([C@@H]6CCCN6C(=O)[C@@H](NC(=O)OC)c6ccccc6)[nH]c(=O)c5c4)c4c3CC3(CCCC3)C4)cc2)[nH]1)c1ccccc1 [Example 13]	2.07 nM	0.273 nM	–	–
COC(=O)N[C@@H](C)C(=O)N1CCC[C@H]1c1ncc(-c2ccc(-c3ccc(-c4ccc5nc([C@@H]6CCCN6C(=O)[C@H](C)NC(=O)OC)[nH]c(=O)c5c4)c4c3CC3(CCCC3)C4)cc2)[nH]1 [Example 14]	0.884 nM	0.013 nM	–	–
COC(=O)N[C@H](C(=O)N1CCC[C@H]1c1ncc(-c2ccc(-c3ccc(-c4ccc5nc([C@@H]6CCCN6C(=O)[C@@H](NC(=O)OC)C6CCCCC6)[nH]c(=O)c5c4)c4c3CC3(CCCC3)C4)cc2)[nH]1)C1CCCCC1 [Example 15]	0.206 nM	0.142 nM	–	–
COC(=O)N[C@H](C(=O)C1CCCC[C@H]1c1nc2ccc(-c3ccc(-c4ccc(-c5cnc(C6CCCCN6C(=O)[C@@H](NC(=O)OC)C(C)C)[nH]5)cc4)c4c3CC3(CCCC3)C4)cc2c(=O)[nH]1)C(C)C (stereo partly shown) [Example 16]	0.089 nM	0.036 nM	–	–
COC(=O)N[C@H](C(=O)N1C[C@@H](C)C[C@H]1n1cnc(-c2ccc(-c3ccc(-c4ccc5nc([C@@H]6C[C@H](C)CN6C(=O)[C@@H](NC(=O)OC)C(C)C)[nH]c(=O)c5c4)c4c3CC3(CCCC3)C4)cc2)c1)C(C)C [Example 17]	–	–	0.023 nM	0.006 nM
COC(=O)N[C@H](C(=O)N1CC(C)(C)C[C@H]1c1ncc(-c2ccc(-c3ccc(-c4ccc5nc([C@@H]6CC(C)(C)CN6C(=O)[C@@H](NC(=O)OC)C(C)C)[nH]c(=O)c5c4)c4c3CC3(CCCC3)C4)cc2)[nH]1)C(C)C [Example 18]	0.326 nM	0.065 nM	–	–
CC(C)[C@H](NC(=O)Oc1ccccc1)C(=O)N1CC(C)(C)C[C@H]1c1ncc(-c2ccc(-c3ccc(-c4ccc5nc([C@@H]6CC(C)(C)CN6C(=O)[C@@H](NC(=O)Oc6ccccc6)C(C)C)[nH]c(=O)c5c4)c4c3CC3(CCCC3)C4)cc2)[nH]1 [Example 19]	4.77 nM	0.436 nM	–	–
COC(=O)N[C@H](C(=O)N1CCC[C@H]1C(=O)Nc1ccc(-c2ccc(-c3ccc4nc([C@@H]5CCCN5C(=O)[C@@H](NC(=O)OC)C(C)C)[nH]c(=O)c4c3)c3c2CC2(CCCC2)C3)cc1)C(C)C [Example 20]	3.67 nM	0.685 nM	–	–
COC(=O)N[C@H](C(=O)N1CC2(CC2)C[C@H]1c1ncc(-c2ccc(-c3ccc(-c4ccc5nc([C@@H]6CC7(CC7)CN6C(=O)[C@@H](NC(=O)OC)C(C)C)[nH]c(=O)c5c4)c4c3CC3(CCCC3)C4)cc2)[nH]1)C(C)C [Example 21]	0.08 nM	0.029 nM	–	–
COC(=O)N[C@H](C(=O)N1C2CC2C[C@H]1c1ncc(-c2ccc(-c3ccc(-c4ccc5nc([C@@H]6CC7CC7N6C(=O)[C@@H](NC(=O)OC)C(C)C)[nH]c(=O)c5c4)c4c3CC3(CCCC3)C4)cc2)[nH]1)C(C)C (stereo partly shown) [Example 22]	0.561 nM	0.072 nM	–	–
COC(=O)N[C@H](C(=O)N1[C@@H]2CC[C@@H](C2)[C@H]1c1ncc(-c2ccc(-c3ccc(-c4ccc5nc([C@@H]6[C@H]7CC[C@H](C7)N6C(=O)[C@@H](NC(=O)OC)C(C)C)[nH]c(=O)c5c4)c4c3CC3(CCCC3)C4)cc2)[nH]1)C(C)C [Example 23]	0.31 nM	0.047 nM	–	–
COC(=O)N[C@H](C(=O)N1CC2(C[C@H]1c1ncc(-c3ccc(-c4ccc(-c5ccc6nc([C@@H]7CCCN7C(=O)[C@@H](NC(=O)OC)C(C)C)[nH]c(=O)c6c5)c5c4CC4(CCCC4)C5)cc3)[nH]1)OCCO2)C(C)C [Example 24]	0.475 nM	0.099 nM	–	–
COC(=O)N[C@H](C(=O)N1CCC[C@H]1c1ncc(-c2ccc(-c3ccc(-c4ccc5nc([C@@H]6CC7CC7N6C(=O)[C@@H](NC(=O)OC)C(C)C)[nH]c(=O)c5c4)c4c3CC3(CCCC3)C4)c3c2CCC3)[nH]1)C(C)C (stereo partly shown) [Example 25]	0.829 nM	0.103 nM	–	–
COC(=O)N[C@H](C(=O)N1CCC[C@H]1c1ncc(-c2ccc(-c3ccc(-c4ccc5nc([C@@H]6CC7CC7N6C(=O)[C@@H](NC(=O)OC)C(C)C)[nH]c(=O)c5c4)c4c3CC3(CCCC3)C4)c3ccccc23)[nH]1)C(C)C (stereo partly shown) [Example 26]	0.727 nM	0.216 nM	–	–
COC(=O)N[C@H](C(=O)N1CCC[C@H]1c1ncc(-c2ccc(-c3ccc(-c4ccc5nc([C@@H]6CC7CC7N6C(=O)[C@@H](NC(=O)OC)C(C)C)[nH]c(=O)c5c4)c4c3CC3(CCCC3)C4)c3cnoc23)[nH]1)C(C)C (stereo partly shown) [Example 27]	1.53 nM	0.323 nM	–	–
COC(=O)N[C@H](C(=O)N1CCC[C@H]1c1ncc(-c2ccc(-c3sc(-c4ccc5nc([C@@H]6CCCN6C(=O)[C@@H](NC(=O)OC)C(C)C)[nH]c(=O)c5c4)c4c3CC3(CCCC3)C4)cc2)[nH]1)C(C)C [Example 28]	1.1 nM	0.763 nM	–	–
COC(=O)N[C@H](C(=O)N1CCC[C@H]1C1=Nc2cc(-c3cnc(-c4ccc(-c5cnc([C@@H]6CCCN6C(=O)[C@@H](NC(=O)OC)C(C)C)[nH]5)cc4)c4c3CC3(CCCC3)C4)ccc2S(=O)(=O)N1)C(C)C [Example 29]	0.061 nM	0.009 nM	–	–
